Results reported in ChEMBL document CHEMBL3885881, “DrugMatrix”.

Organism: Rattus norvegicus
Assay: DrugMatrix - Regimen: Daily Repeat
Type: toxicity, organism-based, Sprague-Dawley
Parameters: regimen Daily Repeat, gender Male, age 6-8 weeks
Settings: in vivo, po, route oral GAVAGE, vehicle .5 % CMC; for BASOPHIL / EOSINOPHIL / ERYTHROCYTE COUNT / HEMATOCRIT / HEMOGLOBIN / LEUKOCYTE COUNT / LYMPHOCYTE / MEAN CORPUSCULAR HEMOGLOBIN / MEAN CORPUSCULAR HEMOGLOBIN CONCENTRATION / MEAN CORPUSCULAR VOLUME / MONOCYTE / NEUTROPHIL / PLATELET COUNT: tissue Blood; for ALANINE AMINOTRANSFERASE / ALBUMIN / ALKALINE PHOSPHATASE / ASPARTATE AMINOTRANSFERASE / BLOOD UREA NITROGEN / CARBON DIOXIDE / CHLORIDE / CHOLESTEROL / CREATINE PHOSPHOKINASE / CREATININE / GLUCOSE / LACTATE DEHYDROGENASE / LIPASE / PHOSPHORUS / POTASSIUM / SODIUM / TOTAL BILIRUBIN / TOTAL PROTEIN / URIC ACID: tissue Plasma
[1] = 0 mg/kg, 72 h, dose level Control, time 3 day
[2] = 0 mg/kg, 120 h, dose level Control, time 5 day
[3] = 0 mg/kg, […], dose level Control, time 14 day
[4] = 200 mg/kg, 72 h, dose level High, time 3 day
[5] = 200 mg/kg, 120 h, dose level High, time 5 day

Compound: Nc1cccc(Cl)c1 [3-CHLOROANILINE]
- BASOPHIL [1]: 0.62%
- EOSINOPHIL [1]: 0.52%
- ERYTHROCYTE COUNT [1]: 6.33 x10E6/uL
- HEMATOCRIT [1]: 41.88%
- HEMOGLOBIN [1]: 13.52 G/DL
- LEUKOCYTE COUNT [1]: 11.39 x10E3/uL
- LYMPHOCYTE [1]: 86.18%
- MEAN CORPUSCULAR HEMOGLOBIN [1]: 21.35 pg
- MEAN CORPUSCULAR HEMOGLOBIN CONCENTRATION [1]: 32.23 G/DL
- MEAN CORPUSCULAR VOLUME [1]: 66.25 fL
- MONOCYTE [1]: 1.93%
- NEUTROPHIL [1]: 9.1%
- PLATELET COUNT [1]: 1204.5 x10E3/uL
- ALANINE AMINOTRANSFERASE [1]: 43 u/L
- ALBUMIN [1]: 4.08 G/DL
- ALKALINE PHOSPHATASE [1]: 426.33 u/L
- ASPARTATE AMINOTRANSFERASE [1]: 72.5 u/L
- BLOOD UREA NITROGEN [1]: 16.67 mg/dL
- CARBON DIOXIDE [1]: 28.33 mmol/L
- CHLORIDE [1]: 103.5 MEQ/L
- CHOLESTEROL [1]: 78.83 mg/dL
- CREATINE PHOSPHOKINASE [1]: 325.67 u/L
- CREATININE [1]: 0.48 mg/dL
- GLUCOSE [1]: 171.67 mg/dL
- LACTATE DEHYDROGENASE [1]: 107.33 u/L
- LIPASE [1]: 11.83 u/L
- PHOSPHORUS [1]: 12.55 mg/dL
- POTASSIUM [1]: 6.57 MEQ/L
- SODIUM [1]: 145.67 MEQ/L
- TOTAL BILIRUBIN [1]: 0.42 mg/dL
- TOTAL PROTEIN [1]: 6.1 G/DL
- URIC ACID [1]: 1.57 mg/dL
- BASOPHIL [2]: 0.48%
- EOSINOPHIL [2]: 0.67%
- ERYTHROCYTE COUNT [2]: 6.69 x10E6/uL
- HEMATOCRIT [2]: 44.17%
- HEMOGLOBIN [2]: 13.78 G/DL
- LEUKOCYTE COUNT [2]: 7.86 x10E3/uL
- LYMPHOCYTE [2]: 85.9%
- MEAN CORPUSCULAR HEMOGLOBIN [2]: 20.6 pg
- MEAN CORPUSCULAR HEMOGLOBIN CONCENTRATION [2]: 31.25 G/DL
- MEAN CORPUSCULAR VOLUME [2]: 65.9 fL
- MONOCYTE [2]: 3.27%
- NEUTROPHIL [2]: 8.67%
- PLATELET COUNT [2]: 1182.33 x10E3/uL
- ALANINE AMINOTRANSFERASE [2]: 37.5 u/L
- ALBUMIN [2]: 4 G/DL
- ALKALINE PHOSPHATASE [2]: 348.17 u/L
- ASPARTATE AMINOTRANSFERASE [2]: 71.67 u/L
- BLOOD UREA NITROGEN [2]: 13 mg/dL
- CARBON DIOXIDE [2]: 27 mmol/L
- CHLORIDE [2]: 104.67 MEQ/L
- CHOLESTEROL [2]: 73.33 mg/dL
- CREATINE PHOSPHOKINASE [2]: 211.33 u/L
- CREATININE [2]: 0.23 mg/dL
- GLUCOSE [2]: 155 mg/dL
- LACTATE DEHYDROGENASE [2]: 133.83 u/L
- LIPASE [2]: 11.17 u/L
- PHOSPHORUS [2]: 14.53 mg/dL
- POTASSIUM [2]: 6.65 MEQ/L
- SODIUM [2]: 148.17 MEQ/L
- TOTAL BILIRUBIN [2]: 0.28 mg/dL
- TOTAL PROTEIN [2]: 6.22 G/DL
- URIC ACID [2]: 1.57 mg/dL
- BASOPHIL [3]: 0.97%
- EOSINOPHIL [3]: 0.8%
- ERYTHROCYTE COUNT [3]: 7.02 x10E6/uL
- HEMATOCRIT [3]: 44.43%
- HEMOGLOBIN [3]: 14.58 G/DL
- LEUKOCYTE COUNT [3]: 16.49 x10E3/uL
- LYMPHOCYTE [3]: 79.03%
- MEAN CORPUSCULAR HEMOGLOBIN [3]: 20.85 pg
- MEAN CORPUSCULAR HEMOGLOBIN CONCENTRATION [3]: 32.78 G/DL
- MEAN CORPUSCULAR VOLUME [3]: 63.57 fL
- MONOCYTE [3]: 1.9%
- NEUTROPHIL [3]: 15.18%
- PLATELET COUNT [3]: 1184.33 x10E3/uL
- ALANINE AMINOTRANSFERASE [3]: 43 u/L
- ALBUMIN [3]: 4.25 G/DL
- ALKALINE PHOSPHATASE [3]: 409.67 u/L
- ASPARTATE AMINOTRANSFERASE [3]: 84.17 u/L
- BLOOD UREA NITROGEN [3]: 16 mg/dL
- CARBON DIOXIDE [3]: 35.17 mmol/L
- CHLORIDE [3]: 99.83 MEQ/L
- CHOLESTEROL [3]: 68.67 mg/dL
- CREATINE PHOSPHOKINASE [3]: 384.17 u/L
- CREATININE [3]: 0.43 mg/dL
- GLUCOSE [3]: 160 mg/dL
- LACTATE DEHYDROGENASE [3]: 115.33 u/L
- LIPASE [3]: 17.33 u/L
- PHOSPHORUS [3]: 10.68 mg/dL
- POTASSIUM [3]: 6.48 MEQ/L
- SODIUM [3]: 148.17 MEQ/L
- TOTAL BILIRUBIN [3]: 0.45 mg/dL
- TOTAL PROTEIN [3]: 6.57 G/DL
- URIC ACID [3]: 1.78 mg/dL
- BASOPHIL [4]: 0.8%
- EOSINOPHIL [4]: 0.35%
- ERYTHROCYTE COUNT [4]: 6.14 x10E6/uL
- HEMATOCRIT [4]: 40.2%
- HEMOGLOBIN [4]: 12.45 G/DL
- LEUKOCYTE COUNT [4]: 16.22 x10E3/uL
- LYMPHOCYTE [4]: 78.8%
- MEAN CORPUSCULAR HEMOGLOBIN [4]: 20.3 pg
- MEAN CORPUSCULAR HEMOGLOBIN CONCENTRATION [4]: 31 G/DL
- MEAN CORPUSCULAR VOLUME [4]: 65.45 fL
- MONOCYTE [4]: 2.65%
- NEUTROPHIL [4]: 16.45%
- PLATELET COUNT [4]: 1382 x10E3/uL
- ALANINE AMINOTRANSFERASE [4]: 38.5 u/L
- ALBUMIN [4]: 4.1 G/DL
- ALKALINE PHOSPHATASE [4]: 564 u/L
- ASPARTATE AMINOTRANSFERASE [4]: 78.5 u/L
- BLOOD UREA NITROGEN [4]: 14 mg/dL
- CARBON DIOXIDE [4]: 30.5 mmol/L
- CHLORIDE [4]: 106 MEQ/L
- CHOLESTEROL [4]: 63.5 mg/dL
- CREATINE PHOSPHOKINASE [4]: 161 u/L
- CREATININE [4]: 0.4 mg/dL
- GLUCOSE [4]: 168.5 mg/dL
- LACTATE DEHYDROGENASE [4]: 65.5 u/L
- LIPASE [4]: 14.5 u/L
- PHOSPHORUS [4]: 13.95 mg/dL
- POTASSIUM [4]: 6.9 MEQ/L
- SODIUM [4]: 148 MEQ/L
- TOTAL BILIRUBIN [4]: 0.5 mg/dL
- TOTAL PROTEIN [4]: 6.1 G/DL
- URIC ACID [4]: 1.65 mg/dL
- BASOPHIL [5]: 0.4%
- EOSINOPHIL [5]: 0.7%
- ERYTHROCYTE COUNT [5]: 5.95 x10E6/uL
- HEMATOCRIT [5]: 43%
- HEMOGLOBIN [5]: 13 G/DL
- LEUKOCYTE COUNT [5]: 15.09 x10E3/uL
- LYMPHOCYTE [5]: 67.85%
- MEAN CORPUSCULAR HEMOGLOBIN [5]: 21.85 pg
- MEAN CORPUSCULAR HEMOGLOBIN CONCENTRATION [5]: 30.25 G/DL
- MEAN CORPUSCULAR VOLUME [5]: 72.25 fL
- MONOCYTE [5]: 4.1%
- NEUTROPHIL [5]: 26.4%
- PLATELET COUNT [5]: 1312 x10E3/uL
- ALANINE AMINOTRANSFERASE [5]: 35 u/L
- ALBUMIN [5]: 4.1 G/DL
- ALKALINE PHOSPHATASE [5]: 356 u/L
- ASPARTATE AMINOTRANSFERASE [5]: 72.5 u/L
- BLOOD UREA NITROGEN [5]: 12 mg/dL
- CARBON DIOXIDE [5]: 29.5 mmol/L
- CHLORIDE [5]: 103.5 MEQ/L
- CHOLESTEROL [5]: 69.5 mg/dL
- CREATINE PHOSPHOKINASE [5]: 182 u/L
- CREATININE [5]: 0.25 mg/dL
- GLUCOSE [5]: 150.5 mg/dL
- LACTATE DEHYDROGENASE [5]: 149 u/L
- LIPASE [5]: 9 u/L
- PHOSPHORUS [5]: 13.05 mg/dL
- POTASSIUM [5]: 6.45 MEQ/L
- SODIUM [5]: 148.5 MEQ/L
- TOTAL BILIRUBIN [5]: 0.55 mg/dL
- TOTAL PROTEIN [5]: 6.3 G/DL
- URIC ACID [5]: 1.75 mg/dL
